Reference: patent publication US20030050193A1, “Herbicide combinations comprising specific sulfonylureas” (priority 2001, published 2003)

Assays:
Format in all cases: in vivo
[1] = system: Wheat; assay: Crop damage in greenhouse trials, visual scoring; conditions: scored approx. 4-6 weeks after application
Method: (§1) Herbicidal Action (Greenhouse Trials)
(§2) The seeds or rhizome pieces of typical harmful plants were placed into sandy loam soil in round pots, size 13, covered with soil and grown in a greenhouse under good growth conditions. After the harmful plants had emerged, they were treated, as a rule at the 2- to 3-leaf stage, with various dosages of the compositions according to the invention at a water application rate of 100 to 400 l/ha (converted),
(§3) After the treatment (approx. 4-6 weeks after application), the herbidical activity of the active compounds or active compound mixtures was scored visually by comparing the treated plots with the untreated controls. Damage and development of all above-ground parts of the plants was recorded. Scoring was done on a percentage scale (100% action=all plants dead; 50% action=50% of the plants and green plant parts dead; 0% action=no discernible action),
(§4) The results are listed in the tables below, where the activity measured for the independent use of the active compounds (A) and (B) is stated in brackets, […]

[2] = system: Galium aparine; assay: Herbicidal action (greenhouse trials), post-emergence, visual scoring; conditions: Example 1; application rate g of ai/ha: amidosulfuron 15, florasulam 4, A + B 15 + 4; scored approx. 4-6 weeks after application; 100% = all plants dead
Method: as §1, §2, §3, §4

[3] = system: Veronica hederifolia; assay: as above; conditions: Example 2; application rate g of al/ha: amidosulfuron 8, cinidon-ethyl 13, A + B 8 + 13; scored approx. 4-6 weeks after application; 100% = all plants dead
Method: as §1, §2, §3, §4

[4] = Example 1, application rate g of ai/ha: amidosulfuron 15, florasulam 4, A + B 15 + 4
[5] = Example 2, application rate g of al/ha: amidosulfuron 8, cinidon-ethyl 13, A + B 8 + 13

Row | SMILES | Wheat % damage [1, 4] | Wheat % damage [1, 5] | Galium aparine % activity [2] | Veronica hederifolia % activity [3]
1 | COc1cc(OC)nc(NC(=O)NS(=O)(=O)N(C)S(C)(=O)=O)n1 [Amidosulfuron, 1-(4,6-dimethoxypyrimidin-2-yl)-3-mesyl-(methyl)-sulfamoylurea] | 0% | 0 | 35% | 0%
2 | CCOC(=O)/C(Cl)=C/c1cc(N2C(=O)C3=C(CCCC3)C2=O)ccc1Cl [Cinidon-ethyl, ethyl (Z)-2-chloro-3-[2-chloro-5-(1,2-cyclohex-1-enedicarboximido)phenyl]acrylate] |  | 0 |  | 15%
3 | COc1ncc(F)c2nc(S(=O)(=O)Nc3c(F)cccc3F)nn12 [Florasulam, 2′,6′,8′-trifluoro-5-methoxy[1,2,4]triazolo[1,5-c]pyrimidine-2-sulfanilide] | 1% |  | 45% | 
